Reference: US20050009894A1 (Aventis Pharma S.A., priority 2001, published 2005)
pIC50: −log10 of the molar value.

Target: T1, human KDR enzyme (Homo sapiens, UniProt P35968)
T1 construct: The cytoplasmic domain of human KDR enzyme is cloned in the form of a GST fusion; GST; made in house; host or cells: SF21 insect cells (baculovirus, pFastBac)
Test: Phosphorylation of the substrate PLCγ by the enzyme KDR in vitro (flashplate technique)
Assay type: biochemical
Settings: Table VII, degrees of activity by IC50 range; read-out: Activity
Method: The inhibitory effect of the compounds is determined in a test of phosphorylation of a substrate by the enzyme KDR in vitro by the flasplate technique (96-well plate, NEN). The cytoplasmic domain of human KDR enzyme is cloned in the form of a GST fusion into the baculovirus expression vector pFastBac. The protein is expressed in the SF21 cells and purified to about 60% homogeneity.
The kinase activity of KDR is measured in 20 mM MOPS, 10 mM MgCl2, 10 mM MnCl2, 1 mM DTT, 2.5 mM EGTA, 10 mM β-glycerophosphate, pH 7.2 in the presence of 10 mM MgCl2, 100 μM Na3VO4, 1 mM NaF. 10 μl of the compound are added to 70 μl of kinase buffer containing 100 ng of KDR enzyme at 4° C. The reaction is initiated by adding 20 μl of solution containing 2 μg of substrate (fragment SH2-SH3 of PLCγ expressed in the form of a GST fusion protein), 2 μCi γ33P[ATP] and 2 μM cold ATP. After incubating for 1 h at 37° C., the reaction is quenched by adding 1 volume (100 μl) of 200 mM EDTA. The incubation buffer is removed and the wells are washed three times with 300 μl of PBS. The radioactivity is measured in each well using a Top Count NXT instrument (Packard).
Background noise is determined by measuring the radio-activity in wells in quadruplet containing radioactive ATP and the substrate alone.
An activity control is measured in wells in quadruplet containing all the reagents (γ33P-[ATP], KDR and the substrate PLCγ) and in the absence of compound.
The inhibition of the KDR activity with the compound of the invention is expressed as a percentage of inhibition of the control activity determined in the absence of compound.
The compound SU5614 (Calbiochem) (1 μM) is included in each plate as inhibition control.
The IC50 values for the compounds are calculated by plotting the dose-response curves. The IC50 corresponds to the concentration of compound that induces a 50% inhibition of the kinase activity.

T1 sequence (P35968 786-1356 limits assumed): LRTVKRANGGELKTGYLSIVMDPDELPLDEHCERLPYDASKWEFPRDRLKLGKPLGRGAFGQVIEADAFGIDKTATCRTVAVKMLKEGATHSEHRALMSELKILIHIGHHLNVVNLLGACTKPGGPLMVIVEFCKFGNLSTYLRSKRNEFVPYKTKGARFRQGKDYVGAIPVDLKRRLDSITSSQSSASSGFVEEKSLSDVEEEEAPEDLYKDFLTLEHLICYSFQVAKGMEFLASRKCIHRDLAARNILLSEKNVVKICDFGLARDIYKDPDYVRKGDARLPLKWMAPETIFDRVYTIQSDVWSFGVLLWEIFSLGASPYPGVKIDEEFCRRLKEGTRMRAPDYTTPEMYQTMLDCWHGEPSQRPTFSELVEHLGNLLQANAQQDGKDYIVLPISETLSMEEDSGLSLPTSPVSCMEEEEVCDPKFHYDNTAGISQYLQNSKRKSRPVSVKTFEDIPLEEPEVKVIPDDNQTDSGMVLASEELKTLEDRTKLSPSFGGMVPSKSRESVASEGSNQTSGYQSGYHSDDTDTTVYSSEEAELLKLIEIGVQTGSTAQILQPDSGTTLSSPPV

pIC50	Compound
5.52 to 6.52	O=C(NCc1ccccc1OC(F)(F)F)c1ccc2[nH]c(-c3n[nH]c4ccccc34)nc2c1 [Example 44, 2-(1H-Indazol-3-yl)-1H-benzoimidazole-5-carboxylic acid 2-trifluoromethoxy-benzylamide]
> 6.52	Cc1ccccc1CNC(=O)c1ccc2[nH]c(-c3n[nH]c4ccccc34)nc2c1 [Example 45, 2-(1H-Indazol-3-yl)-1H-benzoimidazole-5-carboxylic acid 2-methyl-benzylamide]
5.52 to 6.52	Cc1ccsc1CNC(=O)c1ccc2[nH]c(-c3n[nH]c4ccccc34)nc2c1 [Example 46, 2-(1H-Indazol-3-yl)-1H-benzoimidazole-5-carboxylic acid (3-methyl-thiophen-2-ylmethyl)-amide]
5.52 to 6.52	O=C(NCc1ccccc1C(F)(F)F)c1ccc2[nH]c(-c3n[nH]c4ccccc34)nc2c1 [Example 47, 2-(1H-Indazol-3-yl)-1H-benzoimidazole-5-carboxylic acid 2-trifluoromethyl-benzylamide]
5.52 to 6.52	O=C(NCc1ccc(Oc2ccccc2)cc1)c1ccc2[nH]c(-c3n[nH]c4ccccc34)nc2c1 [Example 48, 2-(1H-Indazol-3-yl)-1H-benzoimidazole-5-carboxylic acid 4-phenoxy-benzylamide]
5.52 to 6.52	O=C(NCc1cccc(OC(F)(F)F)c1)c1ccc2[nH]c(-c3n[nH]c4ccccc34)nc2c1 [Example 49, 2-(1H-Indazol-3-yl)-1H-benzoimidazole-5-carboxylic acid 3-trifluoromethoxy-benzylamide]
5.52 to 6.52	CC(C)OCCCNC(=O)c1ccc2[nH]c(-c3n[nH]c4ccccc34)nc2c1 [Example 50, 2-(1H-Indazol-3-yl)-1H-benzoimidazole-5-carboxylic acid (3-isopropoxy-propyl)-amide]
5.52 to 6.52	Cn1cc(CNC(=O)c2ccc3[nH]c(-c4n[nH]c5ccccc45)nc3c2)cn1 [Example 51, 2-(1H-Indazol-3-yl)-1H-benzoimidazole-5-carboxylic acid (1-methyl-1H-pyrazol-4-ylmethyl)-amide]
5.52 to 6.52	CC(C)c1ccc(CNC(=O)c2ccc3[nH]c(-c4n[nH]c5ccccc45)nc3c2)cc1 [Example 52, 2-(1H-Indazol-3-yl)-1H-benzoimidazole-5-carboxylic acid 4-isopropyl-benzylamide]
5.52 to 6.52	Cc1cc(CNC(=O)c2ccc3[nH]c(-c4n[nH]c5ccccc45)nc3c2)c(C)o1 [Example 53, 2-(1H-Indazol-3-yl)-1H-benzoimidazole-5-carboxylic acid (2,5-dimethyl-furan-3-ylmethyl)-amide]
5.52 to 6.52	O=C(NCc1cc2ccccc2s1)c1ccc2[nH]c(-c3n[nH]c4ccccc34)nc2c1 [Example 54, 2-(1H-Indazol-3-yl)-1H-benzoimidazole-5-carboxylic acid (benzo[b]thiophen-2-ylmethyl)-amide]
5.52 to 6.52	CC(=O)Nc1cccc(OCCCNC(=O)c2ccc3[nH]c(-c4n[nH]c5ccccc45)nc3c2)c1 [Example 55, 2-(1H-Indazol-3-yl)-1H-benzoimidazole-5-carboxylic acid [3-(3-acetylamino-phenoxy)-propyl]-amide]
> 6.52	O=C(NCc1ccc(Cl)nc1)c1ccc2[nH]c(-c3n[nH]c4ccccc34)nc2c1 [Example 56, 2-(1H-Indazol-3-yl)-1H-benzoimidazole-5-carboxylic acid (6-chloro-pyridin-3-ylmethyl)-amide]
5.52 to 6.52	O=C(NCc1ccc(-c2cccs2)s1)c1ccc2[nH]c(-c3n[nH]c4ccccc34)nc2c1 [Example 57, 2-(1H-Indazol-3-yl)-1H-benzoimidazole-5-carboxylic acid ([2,2′]bithiophenyl-5-ylmethyl)-amide]
> 6.52	O=C(NCc1ccc2c(c1)CCO2)c1ccc2[nH]c(-c3n[nH]c4ccccc34)nc2c1 [Example 58, 2-(1H-Indazol-3-yl)-1H-benzoimidazole-5-carboxylic acid (2,3-dihydro-benzofuran-5-ylmethyl)-amide]
5.52 to 6.52	N#Cc1ccc(CNC(=O)c2ccc3[nH]c(-c4n[nH]c5ccccc45)nc3c2)cc1 [Example 59, 2-(1H-Indazol-3-yl)-1H-benzoimidazole-5-carboxylic acid 4-cyano-benzylamide]
< 5.52	O=C(NCc1csc2ccc(Cl)cc12)c1ccc2[nH]c(-c3n[nH]c4ccccc34)nc2c1 [Example 60, 2-(1H-Indazol-3-yl)-1H-benzoimidazole-5-carboxylic acid (5-chloro-benzo[b]thiophen-3-ylmethyl)-amide]

pIC50	Compound
< 5.52	O=C(NCc1cccc(C(F)(F)F)c1)c1ccc2[nH]c(-c3n[nH]c4ccccc34)nc2c1 [Example 61, 2-(1H-Indazol-3-yl)-1H-benzoimidazole-5-carboxylic acid 3-trifluoromethyl-benzylamide]
> 6.52	CSc1ccccc1CNC(=O)c1ccc2[nH]c(-c3n[nH]c4ccccc34)nc2c1 [Example 62, 2-(1H-Indazol-3-yl)-1H-benzoimidazole-5-carboxylic acid 2-methylsulfanyl-benzylamide]
> 6.52	O=C(NCc1csc2ccccc12)c1ccc2[nH]c(-c3n[nH]c4ccccc34)nc2c1 [Example 63, 2-(1H-Indazol-3-yl)-1H-benzoimidazole-5-carboxylic acid (benzo[b]thiophen-3-ylmethyl)-amide]
5.52 to 6.52	O=C(NCC1CCOCC1)c1ccc2[nH]c(-c3n[nH]c4ccccc34)nc2c1 [Example 64, 2-(1H-Indazol-3-yl)-1H-benzoimidazole-5-carboxylic acid (tetrahydro-pyran-4-ylmethyl)-amide]
5.52 to 6.52	O=C(NCC1COc2ccccc2O1)c1ccc2[nH]c(-c3n[nH]c4ccccc34)nc2c1 (stereo not drawn) [Example 65, 2-(1H-Indazol-3-yl)-1H-benzoimidazole-5-carboxylic acid (2,3-dihydro-benzo[1,4]dioxin-2-ylmethyl)-amide]
5.52 to 6.52	O=C(NCc1ccoc1)c1ccc2[nH]c(-c3n[nH]c4ccccc34)nc2c1 [Example 66, 2-(1H-Indazol-3-yl)-1H-benzoimidazole-5-carboxylic acid (furan-3-ylmethyl)-amide]
5.52 to 6.52	O=C(NCc1ccccc1[N+](=O)[O-])c1ccc2[nH]c(-c3n[nH]c4ccccc34)nc2c1 [Example 67, 2-(1H-Indazol-3-yl)-1H-benzoimidazole-5-carboxylic acid 2-nitro-benzylamide]
5.52 to 6.52	O=C(NCc1ccsc1)c1ccc2[nH]c(-c3n[nH]c4ccccc34)nc2c1 [Example 68, 2-(1H-Indazol-3-yl)-1H-benzoimidazole-5-carboxylic acid (thiophen-3-ylmethyl)-amide]
5.52 to 6.52	Cc1cc(C)cc(CNC(=O)c2ccc3[nH]c(-c4n[nH]c5ccccc45)nc3c2)c1 [Example 69, 2-(1H-Indazol-3-yl)-1H-benzoimidazole-5-carboxylic acid 3,5-dimethyl-benzylamide]
5.52 to 6.52	Cn1c(CNC(=O)c2ccc3[nH]c(-c4n[nH]c5ccccc45)nc3c2)nc2ccccc21 [Example 70, 2-(1H-Indazol-3-yl)-1H-benzoimidazole-5-carboxylic acid (1-methyl-1H-benzoimidazol-2-ylmethyl)-amide]
> 6.52	Cc1cccc(CNC(=O)c2ccc3[nH]c(-c4n[nH]c5ccccc45)nc3c2)c1 [Example 71, 2-(1H-Indazol-3-yl)-1H-benzoimidazole-5-carboxylic acid 3-methyl-benzylamide]
> 6.52	O=C(NCc1cccc(Cl)c1)c1ccc2[nH]c(-c3n[nH]c4ccccc34)nc2c1 [Example 72, 2-(1H-Indazol-3-yl)-1H-benzoimidazole-5-carboxylic acid 3-chloro-benzylamide]
5.52 to 6.52	NS(=O)(=O)c1ccc(CNC(=O)c2cccc3nc(-c4n[nH]c5ccccc45)[nH]c23)cc1 [Example 73, 2-(1H-Indazol-3-yl)-3H-benzoimidazole-4-carboxylic acid 4-sulfamoyl-benzylamide]
< 5.52	CCOCCCNC(=O)c1cccc2nc(-c3n[nH]c4ccccc34)[nH]c12 [Example 74, 2-(1H-Indazol-3-yl)-3H-benzoimidazole-4-carboxylic acid (3-ethoxy-propyl)-amide]
< 5.52	O=C(NCc1ccc(Br)cc1)c1cccc2nc(-c3n[nH]c4ccccc34)[nH]c12 [Example 75, 2-(1H-Indazol-3-yl)-3H-benzoimidazole-4-carboxylic acid 4-bromo-benzylamide]
< 5.52	O=C(NCc1cccc2ccccc12)c1cccc2nc(-c3n[nH]c4ccccc34)[nH]c12 [Example 76, 2-(1H-Indazol-3-yl)-3H-benzoimidazole-4-carboxylic acid (naphthalen-1-ylmethyl)-amide]
